In patent publication US5159085A, “2-anilino phenylacetic acid derivatives as inhibitors of PLA2 and lipoxygenase” (American Home Products Corporation, priority 1991, dated 1992):

Columns and labels:
[1] = system: TxB2 synthesis (cyclooxygenase) by rat glycogen-elicited polymorphonuclear leukocytes; test: Inhibition of TxB2 synthesis by rat glycogen-elicited PMN (cyclooxygenase); assay type: cell-based, rat (female Wistar); conditions: Rattus norvegicus, Leukocyte; for inhibition at 0.5 µM: negative values denote potentiation of cyclooxygenase
Method: (§1) Rat polymorphonuclear leukocytes (PMNs) are obtained from female Wistar rats (150-200 g) which receive an injection of 6% glycogen (10 ml i.p.). Rats are sacrificed 18-24 hours post injection by CO2 asphyxiation and the elicited cells are harvested by peritoneal lavage using physiological saline (0.9% NaCl). The exudate is centrifuged at 400×g for 10 minutes. The supernatant fluid is discarded and the cell pellet is resuspended to a concentration of 2.0×10^7 cells/ml in HBSS containing Ca^++ and Mg^++ and 10 μM L-cysteine.
(§2) To 1 ml aliquots of cell suspension, test drugs or vehicle are added, then preincubated at 37° C. for 10 minutes. A 23187 (1 μM), [^3 H]-AA (3.0 μCi/ml) and unlabeled AA (1 μM) are then added and the samples are further incubated for 10 minutes. The reaction is terminated by centrifugation and pelleting cells. Supernatants are then analyzed by HPLC analysis on a 15 cm×4.6 mm ID supelcosil LC-18 (Supelco)(3M) column, using a two solvent system at a flow rate of 1.4 ml total flow as follows:
(§3) Percent solvent changes are accomplished in a linear fashion.
(§4) Injections: 150 μl of each supernatant is injected directly onto column and ^3 H arachidonic acid metabolites are monitored using an on-line radioactivity detector (Ramona, IN/US, Fairfield, NJ).
(§5) Standards: 10^4 -2.0×10^4 dpm of eicosanoids of interest are injected in 90 μl EtOH cocktail.
(§6) Co-chromatography with standard [^3 H] leukotriene B4 (LTB4) in medium of stimulated PMN exposed to drug is compared to that found in medium of stimulated cells exposed to no drug, generating percent inhibition.
(§7) Results are expressed as percent inhibition at a given compound dose or as an IC50 value.
In this assay, the procedure of Example 19 is carried out as described. However, in order to determine cyclooxygenase activity, the samples are co-chromatographed with authentic reference [^3 H]-TxB2.
The results are calculated as in Example 19 and presented below: […]

[2] = system: paw edema induced by exogenous PLA2 (snake, A. piscivorus piscivorus); test: In vivo PLA2 murine paw edema assay; design: species or system mouse (male CD-1)
Method: The ability of the compounds of the invention to inhibit paw edema induced by the exogenous administration of PLA2 is measured in the in vivo PLA2 murine paw edema assay.
(§8) The assay is carried out as follows:
Non-fasted, male CD-1 mice (8 weeks old; 31-36 grams) are placed in plastic boxes in groups of six. The right hind paw volume is measured using mercury plethysmography (zero time). […] A solution of purified PLA2, from the diamond back cotton mouth snake (A. piscivorus piscivorus) is prepared in saline at a concentration of 6 μg/ml. Fifty (50) μl (0.3 μg) of this PLA2 solution is injected subcutaneously into the right hind paw with a plastic 1 ml plastic syringe (27 gauge, 1" needle). Paw volume of the injected paw is measured again at 10 minutes, 30 minutes and 60 minutes after PLA2 injection. Animals are euthanized with CO2 at the completion of the study.
The paw edema is calculated by subtracting the zero time volume from the volume recorded at each time period. Mean paw edema for each treatment group is then calculated and expressed as (μl±S.E.). Drug effects are expressed as a percent change from control (vehicle) values. Statistical significance is determined by a one-way analysis of variance with LSD comparison to control (p<0.05). ED50 's are determined using repression analysis.

human platelet PLA2 = molecular target: T1, human platelet PLA2 (Homo sapiens, UniProt P14555); test: In vitro isolated phospholipase A2 assay, human platelet PLA2 (arachidonic acid release from 3H-AA E. coli substrate); assay type: biochemical; conditions: 10 μM; human platelet; negative values denote potentiation; read-out: % Inhibition at 10 μM HP
T1 construct: Semipurified human platelet acid extract PLA2; from tissue; host or cells: human platelets (semipurified acid extract)
T1 sequence (P14555 21-144): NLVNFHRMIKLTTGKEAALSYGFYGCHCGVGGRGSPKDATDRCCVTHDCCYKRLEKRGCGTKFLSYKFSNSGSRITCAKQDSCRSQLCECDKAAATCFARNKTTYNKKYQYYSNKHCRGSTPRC

[3] = molecular target: T2, human synovial fluid PLA2 (Homo sapiens, UniProt P14555); test: In vitro isolated phospholipase A2 assay, human synovial fluid PLA2; assay type: biochemical; conditions: 10 μM; human synovial fluid; negative values denote potentiation; read-out: % Inhibition at 10 μM HSF
T2 construct: Purified human synovial fluid; from tissue; host or cells: human synovial fluid
T2 sequence (P14555 21-144): T1 sequence (P14555 21-144)
Method: The compounds of the invention are tested in an in vitro isolated phospholipase A2 assay to determine the ability of the test compounds to inhibit the release of arachidonic acid from an arachidonic acid-containing substrate by the action of phospholipase A2 enzyme from human and non-human sources.
(§9) This assay is carried out as follows:
Into a 15 mL polypropylene tube are added the following:
*pre-incubate at room temperature 30 min prior to substrate addition.
^5 Stock 10 mM prepared in dimethyl sulfoxide. Make 1:2 dilution with
dimethyl sulfoxide and add 1 μ L to 100 μL assay tube.
^6 Two human PLA2 enzymes are used:
b) Purified human synovial fluid.
Incubate the 100 μL reaction mixture for 10 minutes at 37° C. in a shaking water bath. The reaction is terminated by the addition of 2 mL tetrahydrofuran, followed by vortexing. NH2 columns (100 μg/mL--Analytichem International) are conditioned with 0.5 mL tetrahydrofuran followed by 0.5 mL tetrahydrofuran/water (2 mL:0.1 mL, v/v).
The sample is loaded onto the columns and slowly drawn through them. The hydrolyzed arachidonic acid retained in the columns is eluted therefrom with 1 mL tetrahydrofuran/glacial acetic acid (2%). The arachidonic acid is transferred to scintillation vials and quantitated by β-counting analysis. A "total counts" sample is prepared by pipetting 25 μL ^3 H-arachidonate E. coli directly into a scintillation vial to which is added 1 mL tetrahydrofuran. 10 mL aquasol (scintillation cocktail) is added to all samples. [formula]

[4] = system: LTB4 synthesis by rat glycogen-elicited polymorphonuclear leukocytes (lipoxygenase); test: Inhibition of LTB4 synthesis by rat glycogen-elicited polymorphonuclear leukocytes (PMN); assay type: cell-based, rat (female Wistar); conditions: Leukocyte, A 23187 and exogenous AA; for inhibition at 0.5 µM: negative value denotes potentiation
Text: This is especially true with respect to 5,12-diHETE, which is also denoted as LTB4 [see Ford-Hitchinson, J. Roy. Soc. Med., 74, 831 (1981)]. Compounds which inhibit the PLA2 -mediated release of arachidonic acid thereby effectively prevent the oxidation of arachidonic acid to the various leukotriene products via the lipoxygenase cascade. Accordingly, the specificity of action of PLA2 inhibitors can be determined by the activity of test compounds in this assay, which measures the ability of compounds to inhibit the synthesis of LTB4 by rat glycogen-elicited polymorphonuclear leukocytes (PMN) in the presence of exogenous substrate.
as §8, §1, §2
Gradient: (system is equillibrated with Solvent A)
as §3, §4, §5, §6, §7

LTC4 = test: In vivo murine zymosan peritonitis assay, LTC4 (lipoxygenase pathway); design: species or system mouse (male CD-1); conditions: p.o., mouse, standard drugs
Method: The compounds of the invention are evaluated for their ability to inhibit the lipoxygenase and/or cyclooxygenase pathways of arachidonic acid metabolism in the in vivo murine zymosan peritonitis assay.
as §9
Male CD-1 mice (8 weeks old) are placed in plastic boxes in groups of six. Animals are injected with 1 ml i.p. of either 1% zymosan in pyrogen free 0.9% saline or saline (unstimulated control). Compounds are dosed orally 1 hour prior to zymosan injection. Twenty minutes after zymosan injection, the mice are asphyxiated by CO2 inhalation and the peritoneal cavity is lavaged with 2 ml ice cold Hanks Balanced Salt Solution (HBSS) without CaCl2, MgSO4 ·7H2 O and MgCL2 ·6H2 O. Peritoneal lavage fluid from each mouse is removed by syringe and placed in 5 ml plastic test tubes put on ice and volume is noted. Preparation of samples for evaluation by ELISA is as follows: Samples are centrifuged at 800×g for 15 minutes; 1 ml of the supernatant is added to 8 ml ice cold methanol and kept at -70° C. overnight to precipitate protein; and samples are then centrifuged at 800×g for 15 minutes, followed by a drying procedure in a Savant speed vac concentrator. The samples are reconstituted with 1 ml ice cold ELISA buffer and stored at -70° C. until assayed. The assay for eicosanoids (LTC4 and 6-keto-PGF1α) is performed according to conventional ELISA procedures.
Compounds to be tested orally are suspended in 0.5% Tween 80. Compounds to be tested intraperitoneally are suspended in 0.5% methylcellulose in 0.9% saline.
The total metabolite level in lavage fluid/mouse is calculated and the significance is determined by a one-way analysis of variance with LSD comparisons to control (p≤0.05). Drug effects are expressed as a percent change from control values.

SMILES	inhibition at 0.5 µM [1]	% Change in Edema 10 min ([2]; 1 mg/kg i.p.)	% Change in Edema 10 min ([2]; 10 mg/kg i.p.)	% Change in Edema 30 min ([2]; 10 mg/kg i.p., 30 min)	change in vivo at 1 mg/kg ([2]; Mus musculus, ip, 0.5 h, 1 mg/kg i.p., 30 min)	inhibition at 10 µM (human platelet PLA2)	inhibition at 10 µM [3]	inhibition at 10 µM [4]	% Change in Edema 60 min ([2]; 10 mg/kg i.p.)	% Change in Edema 10 min ([2]; 50 mg/kg p.o.)	% Change in Edema 30 min ([2]; 50 mg/kg p.o., 30 min)	% Change in Edema 60 min ([2]; 50 mg/kg p.o.)	inhibition at 0.5 µM [4]	inhibition at 10 µM ([1]; at 10 μM)	% Change in Edema 3 min ([2]; 10 mg/kg i.p.)	% Change in Edema 3 min ([2]; 50 mg/kg p.o.)	ED50 LTC4 (LTC4)
COC(=O)Cc1cc(OCc2ccc3ccccc3c2)ccc1Nc1c(Cl)cccc1Cl [Example 7, 2-[(2,6-Dichlorophenyl)amino]-5-[(2-naphthalenyl)-methoxy]benzene acetic acid methyl ester]	-26%	-54%	-32%	-39%	-44%	3.6%	-65.4%	34%	–	–	–	–	–	–	–	–	–
O=C(O)Cc1cc(OCc2ccc3ccccc3c2)ccc1Nc1c(Cl)cccc1Cl [Example 8, acetic acid]	30%	–	-28%	-43%	–	-3.9%	42.5%	–	-47%	+35%	-37%	-24%	67%	–	–	–	–
O=C(O)Cc1cc(OCCCCOc2ccccc2)ccc1Nc1c(Cl)cccc1Cl [Example 9, 2-[(2,6-Dichlorophenyl)amino]-5-[(4-phenoxy)butoxy]benzene acetic acid]	38%	–	-54%	-32%	–	2.2%	15.7%	100%	–	-12%	-4%	–	16%	100%	-41%	+37%	–
CC(C)Cc1ccc(C(C)C(=O)O)cc1 (centres unmarked) [Ibuprofen, reference compound]	–	–	–	–	–	–	–	–	–	–	–	–	–	–	–	–	Not Active
COc1ccc2c(c1)c(CC(=O)O)c(C)n2C(=O)c1ccc(Cl)cc1 [Indomethacin, reference compound]	–	–	–	–	–	–	–	–	–	–	–	–	–	–	–	–	Not Active
